Columns and labels:
PC-3 tumor = experiment: 19F/31P/1H MRS of PC-3 tumors after BLT injection, with or without SAHA treatment (Example 2); format: in vivo, mice
Description: Methods and Results: PC-3 cells (10^6) were injected into the flank of male nude mice. MR experiments were first performed when tumors were ˜1 cm in diameter. Mice were anesthetized using isoflurane. A 10-mm home-built ^19F surface coil (milled from a polymer-based flexible substrate using a ProtoMat C100/HF (LPKF Laser & Electronics, Wilsonville, Oreg.)) was placed over the tumor, and the animal placed at the center of the magnet. Varacator diodes in the impedance matching circuitry provided a means to match and tune the coil from the console. Following localization, a T2-weighted image of the tumor was recorded using the RARE sequence (TE=45 ms, TR=2 s) via the ^19F surface coil tuned to ^1H. Localized shimming was performed using FASTMAP and achieved ˜20 Hz line width for the water peak. A localized ^1H spectrum was then acquired using a single-voxel PRESS sequence (TE=21 ms, TR=3 s, 96 scans) with VAPOR water suppression. Following retuning of the coil to ^19F, a ‘baseline’ ^19F spectrum was then acquired using a one-pulse sequence (45° flip angle, 300 scans, TR=1 s). A microsphere filled with 20 mM trifluorotoluene (−63.7 ppm) served as an external reference. 100 mg/kg BLT (in 40 μl DMSO) was then injected i.p. and sequential 5-minute ^19F spectra acquired over 90 minutes. The ^19F surface coil was then replaced with a ^31P coil and a spectrum acquired from the tumor region using a one-pulse sequence (30° flip angle, 900 scans, TR=2 s). Adequate SNR was achieved within 30 min.
Following 1 week of treatment, the MR study was repeated.

[1] = Toxicity study of Boc-lysine trifluoroacetic acid (BLT) in nude mice; format: in vivo; conditions: 100 mg/kg BLT i.p. in DMSO on days 1, 8, 15; male nude mice; vs DMSO-treated controls
Description: Rationale: BLT must have no detectable toxic effects at levels that result in an MRS-visible signal in vivo if it were to be used as an imaging agent. To verify this, we monitored the toxicity of 100 mg/kg BLT (˜3 mM plasma concentration), which, based on previously published studies of fluorinated drugs, was expected to result in an MRS-detectable signal. (Hamstra, et al., Mol Ther, 10: 916-928, 2004; McSheehy, et al., Cancer Res, 60: 2122-2127, 2000; Gade, et al., Magn Reson Med, 52: 169-173, 2004; Chung, et al., Clin Cancer Res, 10:3863-3870, 2004; Aboagye, et al., Cancer Res, 58: 4075-4078, 1998).
Methods and Results: Four male nude mice were injected intraperitoneally with 100 mg/kg BLT in 40 μl of DMSO and 4 mice were injected with 40 μl of DMSO alone on days 1, 8, and 15 of the study. The mice were monitored daily for changes in weight, skin and hydration status, activity, behavior, feeding, and neurological status. On day 16, blood samples were collected, and blood counts and hepatic and kidney functions assessed (bilirubin, total protein, aspartate aminotransferase, alanine aminotransferase, creatinine, and blood urea nitrogen). At the end of the study, following animal euthanasia, mice were dissected and tissue samples obtained for histology (hematoxylin-eosin staining).

[2] = system: PC3 human prostate cancer cells tumor; experiment: In vivo detection of HDAC inhibition by MRS in PC3 tumors (Example 3); design: species or system mice
Description: Methods. 5×10^6 PC3 human prostate cancer cells suspended in matrigel were injected subcutaneously in male CD-1 nude mice (n=5). When an average tumor volume of 0.2 cm^3 was reached, mice were separated into 2 groups. The treated group (n=3) was treated daily with 50 mg/kg SAHA intraperitoneally, while the control mice were treated with carrier DMSO. MRS was performed on a 4.7T Biospec (Bruker Biospin, Billerica, Mass.) prior to treatment (day 0) and on days 2 and 7 of treatment, using a 1.5 cm (inner diameter) dual-tuned ^1H/^19F surface coil. […] BLT levels determined by ^19F MRS were normalized to the external reference aaa-trifluorotoluene (TFT) (Sigma-Aldrich Chemical Co., St. Louis, Mo.) in a micro-cell spherical bulb placed at a permanent location relative to the coil and expressed as % of maximum tumor BLT levels in each study. For each mouse and also for average values, a paired t-test of BLT evolution was performed for days 2 and 7 with respect to day 0. ^1H MRS data was analyzed by normalizing the tCho signal either to the total ^1H signal or to the internal water signal.

[3] = system: HDAC activity in rat brain; experiment: PET imaging of HDAC activity in rat brain using [18F]-FAHA (Example 6); format: in vivo; conditions: SAHA 50 mg/kg i.p. 1 hour prior; p<0.01 unpaired t test
Description: Methods: [^18F]-FAHA was synthesized according to the methods developed in our laboratory in high specific activity. Imaging studies with [^18F]-FAHA were conducted in five rats using a PET scanner under isoflurane inhalation anesthesia. The animals were injected intravenously with 37 MBq of [^18F]-FAHA and dynamic scanning PET (0-60 min) was performed. During the imaging session, the rats were anesthetized with 1-1.5 vol % isoflurane/oxygen inhalation and continuously heated with a heating lamp. Two days after the initial study, another PET imaging was performed with [^18F]-FAHA using an […] (SAHA). Each animal was given SAHA (50 mg/kg), intraperitoneally 1 hour prior to injection of the [^18F]-FAHA.
In Table 6, “baseline” refers to brain uptake of FAHA without blocking by SAHA.

MB435 tumor xenografts = experiment: PET of [18F]-FAHA in MB435 tumor xenograft-bearing nude rats (second Example 4); format: in vivo, rat; conditions: blocking study, SAHA 50 mg/kg i.p. 1 hour prior; p<0.01 unpaired t test
Description: Methods: [^18F]-FAHA was synthesized with high specific activity according to a method developed at M. D. Anderson Cancer Center. Human breast cancer cells, cell line MB435, grown as described in Example 3, were used to grow tumor xenografts in nude rats. Ten million cancer cells were injected subcutaneously in the neck area of six nude rats. When tumors were 1 cm in diameter, animals were anesthetized, injected with [^18F]-FAHA (37 MBq) and PET imaging was performed (dynamic) up to 60 min post-injection. Two days after the initial imaging, another PET imaging with [^18F]-FAHA was performed using a […] (SAHA). The animals were given SAHA (50 mg/kg) intraperitoneally 1 hour prior to injection of the radiotracer.

Compound	decrease in tumor BLT levels (PC-3 tumor; first 50 min following BLT injection i.p., PC-3 tumor, 19F MRS)	toxicity (weight, behavior, blood counts, hepatic and kidney functions, histology) [1]	19F MRS of BLT as indicator of HDAC inhibition ([2]; PC3 tumors, SAHA 50 mg/kg daily i.p., days 0, 2, 7, 100 mg/kg BLT i.p.)	effect on uptake of [18F]-FAHA inside brain [3]	tumor growth (PC-3 tumor; 50 mg/kg SAHA in DMSO daily i.p., PC-3 tumor, preliminary data)	BLT levels in the tumor in vivo (19F MRS, normalized to tumor size) (PC-3 tumor; 1 week of 50 mg/kg SAHA daily i.p. vs DMSO control and pre-treatment)	effect on uptake of [18F]-FAHA inside tumor (MB435 tumor xenografts)	phosphomonoesters and choline-containing metabolites (31P MRS and 1H MRS) ([2]; PC3 tumors following SAHA treatment 50 mg/kg daily i.p.)
CC(C)(C)OC(=O)N[C@@H](CCCCN)C(=O)O.O=C(O)C(F)(F)F [BLT, Boc-lysine trifluoroacetic acid]	~25%	no indication of significant toxicity was observed	detects HDAC inhibition prior to effect on tumor size					
O=C(CCCCCCC(=O)Nc1ccccc1)NO [SAHA, suberoylanilide hydroxamic acid, reference compound]				significantly inhibited	inhibition of tumor growth	higher	significantly inhibited	transient increase
